Measurements reported in US9518038B2, “Condensation product of theanine derivative and carboxylic acid coumarin derivative, its intermediate, preparation method and use thereof” (SHANDONG YINGDONG YINGHAO BIOTECHNOLOGY, INC., priority 2012, dated 2016).

Assays:
[1] = test system: human lung cancer cells H460; test: MTT growth inhibition, H460 cells; format: cell-based; settings: NCI-H460, 72 h after treatment, read-out: Drug concentration (IC50) at which 50% cancer cells survived
[2] = test system: human liver cancer cells HepG2; test: MTT growth inhibition, HepG2 cells; format: cell-based; settings: 72 h after treatment, read-out: Drug concentration (IC50) at which 50% cancer cells survived
[3] = test system: human breast cancer cells MCF-7 xenograft; test: In-vivo growth of MCF-7 xenografts in nude mice; design: species or system BALB/c nude mice; settings: Mus musculus, MCF7, ip, vs DMSO solvent control, read-out: Curative effect (inhibition rate %) of tumor weight; for inhibition in vivo at 60 mg/kg: 60 mg/kg intraperitoneal once a day; for inhibition in vivo at 90 mg/kg: 90 mg/kg intraperitoneal once a day
Experimental: (§1) RPMI1640 and DMEM culture solutions: Hyclone Company; inactivated fetal bovine serum: Hyclone Company, preserved at −20° C.; trypsin: Amersco Company; and 0.4% trypan blue: Sigma Company;
(§2) (3) Observation of growth of tumors in nude mice: the activities (including food intake, traits of urine and stool, mental state and the like) of the nude mice and the tumor growth time and growth situation of the transplanted tumors were observed every day, the body weight and the size of the tumors were measured once every 2-3 days. The long diameter a and the short diameter b (mm) of each tumor were measured by a vernier caliper to calculate the volume, wherein the volume V=π1/2·ab^2 (mm^3);
(§3) (4) sacrifice of animals: the mice were anesthetized and photoed after treatment experiments; the nude mice were sacrificed by breaking neck, the tumor tissues were stripped under sterile conditions and the weight of the tumors was weighed; and the effects of the drugs on pathology and toxicity of the various organs and tissues were detected.

[4] = test system: human chronic leukemia cells K562; test: MTT growth inhibition, K562 cells; format: cell-based; settings: 72 h after treatment, read-out: Drug concentration (IC50) at which 50% cancer cells survived
[5] = test system: Bcl-2/Bax; test: Western Blotting, Bcl-2/Bax level; format: cell-based; settings: human liver cancer cells, Lewis lung cancer cells and other cancer cell lines and tumor tissues, read-out: Effective concentration (IC50) for inhibition of Bcl-2/Bax
Description: (§4) Antibodies: primary antibodies of VEGFR, EGFR, c-Met, K-Ras, H-Ras, Akt, NF-κB, Cyclin D1, ER-alpha, Dvl-1, Dvl-2, Dvl-3, MMP-9, MMP2, β-catenin, Bcl-2, Bax, p53, p21, E-cadherin and Caspase3 protein, purchased from American Cell Signaling Technology Company and Santa Cruz Technology Company; and H3 acetylation, H4 acetylation and HDAC (HDAC3, HDAC4 and the like) Antibody Sample Kits, purchased from Cell Signaling Technology Company of the U.S.
(§5) (3) polyacrylamide gel electrophoresis (SDS-PAGE): an equal amount of protein lysate sample was used to separate protein, film transfer, and blocking, treated with appropriate primary antibodies and secondary antibodies in sequence, and the film was washed, then the color was developed with ECL kit, and a blot protein band was detected by exposure of an X-ray film; and a Gel-Pro Analyzer was used for quantitative analysis of gray degree, optical density value of the control group and the drug treatment group in various concentration were respectively compared with that of internal reference, the obtained ratios were respectively compared with the control group, and the protein expression level was semi-quantified.

[6] = test system: c-Met; test: Western Blotting, c-Met level; format: cell-based; settings: human liver cancer cells, Lewis lung cancer cells and other cancer cell lines and tumor tissues, read-out: Effective concentration (IC50) for inhibition of c-Met
Description: as §4, §5

[7] = test system: human cervical cancer Hela cell lines; test: MTT growth inhibition, Hela cells; format: cell-based; settings: Homo sapiens, 72 h after treatment, read-out: Drug concentration (IC50) at which 50% cancer cells survived
[8] = test system: human breast cancer cells MDA-MB231 xenograft; test: In-vivo growth of MDA-MB231 xenografts in nude mice; design: species or system BALB/c nude mice; settings: Mus musculus, MDA-MB-231, ip, MB-231 xenograft, vs DMSO solvent control, read-out: Curative effect (inhibition rate %) of tumor weight; for inhibition in vivo at 60 mg/kg: 60 mg/kg intraperitoneal once a day; for inhibition in vivo at 90 mg/kg: 90 mg/kg intraperitoneal once a day
Experimental: as §1, §2, §3

[9] = test system: human brain tumor cells Daoy; test: MTT growth inhibition, Daoy cells; format: cell-based; settings: Homo sapiens, 72 h after treatment, read-out: Drug concentration (IC50) at which 50% cancer cells survived
[10] = test system: human pancreatic cancer cells BxPC3; test: MTT growth inhibition, BxPc3 cells; format: cell-based; settings: Homo sapiens, BXPC-3, 72 h after treatment, read-out: Drug concentration (IC50) at which 50% cancer cells survived
[11] = test system: mouse melanoma cells B16; test: MTT growth inhibition, B16 cells; format: cell-based; settings: Mus musculus, 72 h after treatment, read-out: Drug concentration (IC50) at which 50% cancer cells survived

Row | SMILES | IC50 [1] | IC50 [2] | inhibition in vivo at 60 mg/kg [3] | inhibition in vivo at 90 mg/kg [3] | IC50 [4] | IC50 [5] | IC50 [6] | IC50 [7] | inhibition in vivo at 60 mg/kg [8] | inhibition in vivo at 90 mg/kg [8] | IC50 [9] | IC50 [10] | IC50 [11]
1 | CCNC(=O)CCC(NC(=O)c1cc2ccccc2oc1=O)C(=O)OC (stereo not drawn) [Compound Ia, methyl 5-ethylamino-5-oxo-2-(2-oxo-2H-benzopyran-3-carboxamido)pentanoate] | 230 µM | 250 µM | 50.1% | 61.3% | 248 µM | < 125 µM | < 160 µM | 64 ± 20 µM | 50.1% | 60.1% | 250 µM | 350 µM | 145 µM
2 | CCNC(=O)CCC(NC(=O)c1cc2cc([N+](=O)[O-])ccc2oc1=O)C(=O)OCC (stereo in doubt) [Compound If, (R)-2-(6-nitro-2-oxo-2H-benzopyran-3-carboxamido)-5-ethylamino-5-oxo-pentanoic acid ethyl ester] | 100 µM | 130 µM | 68.6% | 72.6% | 91 µM | < 90 µM | < 141 µM | 71 µM | 52.6% | 62.3% | 129 µM | 180 µM | 280 µM
3 | CCNC(=O)CCC(NC(=O)c1cc2cc(F)ccc2oc1=O)C(=O)OCC (stereo in doubt) [Compound Ie, (R)-2-(6-F-2-oxo-2H-benzopyran-3-carboxamido)-5-ethylamino-5-oxo-pentanoic acid ethyl ester] | 100 µM | 230 µM | 66.8% | 69.8% | 130 µM | < 180 µM | < 145 µM | 71 µM | 50.9% | 60.9% | 210 µM | 260 µM | 230 µM
